# From patent US10538567B2, “Compounds as peptidic trigonal GLP1/glucagon/GIP receptor agonists” (priority 2016, dated 2020)
# Numbered stars: 1 amine (or outer) side, 2 acyl side, 3 side chain; on linkers, the order of the positions; unused ones are H or OH. Square brackets hold non-standard residues; d marks the D form. Side chains are listed from the residue outwards. Peptide text beside a SMILES is read from it. * marks the point of attachment. γGlu = O=C(O)[C@H](CCC(=O)[*:2])N[*:1]; Palmitoyl = CCCCCCCCCCCCCCCC(=O)*; Aib = CC(C)(N)C(=O)O
# Tests used:
# [1] = Chemical stability assessment, UPLC-UV purity loss in buffer system A; format: physicochemical; conditions: 1 mg/ml, 25 mM acetate buffer pH 4.5 with m-cresol
# Procedure, shortened: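 Peptide at 1 mg/mL pure compound (purity-corrected) in 25 mM acetate buffer pH 4.5 with L-methionine, m-cresol and glycerol was sterile-filtered and stored 28 days at 5 and 40° C. UPLC-UV purity (peptide peak area/total area) was compared with the starting value to give relative purity loss in %.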
# [2] = Thioflavin T (ThT) assay for physical stability (fibrillation); format: physicochemical; conditions: 3 mg/ml, 100 mM acetate pH 4.5 with m-cresol, 37° C. shaking
# Procedure, shortened: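 Peptides at 3 mg/ml final with 100 μM ThT final in 100 mM acetate pH 4.5 containing 2.7 mg/mL m-cresol, eight replicates. Stressed at 37° C by repeated cycles of 10 s shaking at 960 rpm and 50 s rest. Fluorescence read every 20 minutes; lag time in hours taken from the sigmoidal kinetic curve.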
# [3] = tested on: female diabetic db/db mice; experiment: Acute effects after s.c. treatment on blood glucose in non-fasting female diabetic db/db mice; format: in vivo; conditions: single 30 μg/kg s.c.
# Experimental: Female healthy, lean BKS.Cg-(lean)/OlaHsd and diabetes-prone, obese BKS.Cg-+Lepr^db/+Lepr^db/OlaHsd mice were ordered group housed from Envigo RMS Inc., shipped group housed and remained group housed in shoebox caging with wood chip bedding until day 15 of the predose phase. At the study start mice were approximately 12 weeks old.
# Mice were housed under vivarium conditions including a 12 h light/dark cycle (light phase 04:00 AM-4:00 PM), room temperatures between 23-26° C. and a relative humidity between 30-70%. All animals had free access to water and Purina Fomulab Diet 5008.
# On predose day 9 blood glucose and body mass (approximately between 08:00-10:00 AM) as well as HbA1c measurements were performed. On day 15 of the predose phase animals were assigned to treatment groups (n=8) and to new cages to match mean HbA1c and body masses between all db/db groups. An age-matched lean group was included in the study as a healthy, lean reference.
# Prior to day 1 of the dosing phase, the test article was diluted with Phosphate Buffered Saline (PBS, Gibco, without CaCl2 and MgCl2) to a concentration of 1 mg/mL and aliquots of this stock solution were stored at approximately ≤−60° C. On day 1 of the dosing phase the stock aliquot was thawed and the injected test article solution was prepared fresh by diluting it with PBS to achieve the desired concentration.
# On Day 1 of the dosing phase db/db mice were either treated once with a s.c. injection of PBS-vehicle or 30 μg/kg test article. The lean reference group was treated once with a s.c. injection of PBS-vehicle. The dosing was initiated and completed between 08:00 and 10:00 AM. The applied volume was 5 ml/kg and the dose was adjusted to the most recent body mass recording of each individual.
# Animals had unlimited access to water and feed during the experiment. On day 1 of the dosing phase approximately 5 μL of blood were collected via tail clips at minute −30 and 0 prior to any other inlife activities. At minute 0 mice received a s.c. dose of either PBS-vehicle or 30 μg/kg test article. Further blood samples were harvested at hour 0.25, 0.5, 1, 1.5, 2, 3, 4, 6, 8, and 24 post-dose. Glucose measurements were performed in whole blood using AlphaTRAK glucometers. If the glucose concentrations of two measurements differed by more than 20 mg/dL a third value was recorded. The Area Under the Curve (AUC) for blood glucose was calculated via the trapezoid method and for the duration of the 24 post-dose hours.
# In the Figures data are depicted as means±SEM. […] A One Way Analysis of Variance and multiple comparisons (Dunnett's Method) were performed comparing the group of diabetic, obese db/db vehicle mice (n=8) with each diabetic, obese db/db test article treated mice (n=8). […] Non-diabetic, lean-vehicle group data are depicted in the Figures serving as a reference dataset for the non-obese, non-diabetic state.
SMILES,Chemical stability [relative purity loss 28 days 40° C.] (%) at pH 4.5 [1] [%],Lag time before increase [2] [h],mean blood glucose concentration 24 hours post-dose relative to baseline [3],time to normalise hyperglycemia to the non-fasting blood glucose concentrations of lean reference mice [3] [h]
"CCCCCCCCCCCCCCCC(=O)N[C@@H](CCC(=O)N[C@@H](CCC(=O)NCCCC[C@H](NC(=O)[C@H](CC(C)C)NC(=O)[C@H](CCCCN)NC(=O)[C@H](CO)NC(=O)[C@H](CC(C)C)NC(=O)[C@H](CC(=O)O)NC(=O)[C@H](CO)NC(=O)[C@@H](NC(=O)[C@H](Cc1ccccc1)NC(=O)[C@@H](NC(=O)CNC(=O)[C@H](Cc1c[nH]cn1)NC(=O)C(C)(C)NC(=O)[C@@H](N)Cc1c[nH]cn1)[C@@H](C)O)[C@@H](C)O)C(=O)N[C@@H](CCC(=O)O)C(=O)N[C@@H](CCC(=O)O)C(=O)N[C@@H](CCC(N)=O)C(=O)N[C@@H](CCCNC(=N)N)C(=O)N[C@@H](CCC(N)=O)C(=O)NC(C)(C)C(=O)N[C@@H](CCC(=O)O)C(=O)N[C@@H](Cc1ccccc1)C(=O)N[C@H](C(=O)N[C@@H](CCC(=O)O)C(=O)N[C@@H](Cc1c[nH]c2ccccc12)C(=O)N[C@@H](CC(C)C)C(=O)N[C@@H](CCCCN)C(=O)N[C@@H](C)C(=O)NCC(=O)NCC(=O)N1CCC[C@H]1C(=O)N1CCC[C@H]1C(=O)N[C@@H](CO)C(=O)NC(C)(C)C(=O)N[C@@H](CCCCN)C(=O)N1CCC[C@H]1C(=O)N1CCC[C@H]1C(=O)N1CCC[C@H]1C(=O)N[C@@H](CCCCN)C(N)=O)[C@@H](C)CC)C(=O)O)C(=O)O [SEQ ID NO: 10, H-Aib-H-G-T-F-T-S-D-L-S-K-L-K[gGlu-gGlu-Palm]-E-E-Q-R-Q-Aib-E-F-I-E-W-L-K-A-G-G-P-P-S-Aib-K-P-P-P-K-NH2]",10.6,>45,at or close to baseline,
"CCCCCCCCCCCCCCCC(=O)N[C@@H](CCC(=O)N[C@@H](CCC(=O)NCCCC[C@H](NC(=O)[C@H](CC(C)C)NC(=O)[C@H](CCCCN)NC(=O)[C@H](CO)NC(=O)[C@H](CC(C)C)NC(=O)[C@H](CC(=O)O)NC(=O)[C@H](CO)NC(=O)[C@@H](NC(=O)[C@H](Cc1ccccc1)NC(=O)[C@@H](NC(=O)CNC(=O)[C@H](Cc1c[nH]cn1)NC(=O)C(C)(C)NC(=O)[C@@H](N)Cc1c[nH]cn1)[C@@H](C)O)[C@@H](C)O)C(=O)N[C@@H](CCC(=O)O)C(=O)N[C@@H](CCC(=O)O)C(=O)N[C@@H](CCC(N)=O)C(=O)N[C@@H](CCCNC(=N)N)C(=O)N[C@@H](CCC(N)=O)C(=O)NC(C)(C)C(=O)N[C@@H](CCC(=O)O)C(=O)N[C@@H](Cc1ccccc1)C(=O)N[C@H](C(=O)N[C@@H](CCC(=O)O)C(=O)N[C@@H](Cc1c[nH]c2ccccc12)C(=O)N[C@@H](CC(C)C)C(=O)N[C@@H](CCCCN)C(=O)N[C@@H](C)C(=O)N[C@H](C)C(=O)NCC(=O)N1CCC[C@H]1C(=O)N1CCC[C@H]1C(=O)N[C@@H](CO)C(=O)NC(C)(C)C(=O)N[C@@H](CCCCN)C(=O)N1CCC[C@H]1C(=O)N1CCC[C@H]1C(=O)N1CCC[C@H]1C(=O)N[C@@H](CCCCN)C(N)=O)[C@@H](C)CC)C(=O)O)C(=O)O [SEQ ID NO: 11, H-Aib-H-G-T-F-T-S-D-L-S-K-L-K[gGlu-gGlu-Palm]-E-E-Q-R-Q-Aib-E-F-I-E-W-L-K-A-dAla-G-P-P-S-Aib-K-P-P-P-K-NH2] (H-H[Aib]HGTFTSDLSKLK([γGlu-γGlu-Palmitoyl])EEQRQ[Aib]EFIEWLKA[dA]GPPS[Aib]KPPPK-NH2)",8.8,>45,still below baseline concentrations,≤ 6
"CCCCCCCCCCCCCCCC(=O)N[C@@H](CCC(=O)N[C@@H](CCC(=O)NCCCC[C@H](NC(=O)[C@H](CC(C)C)NC(=O)[C@H](CCCCN)NC(=O)[C@H](CO)NC(=O)[C@H](CC(C)C)NC(=O)[C@H](CC(=O)O)NC(=O)[C@H](CO)NC(=O)[C@@H](NC(=O)[C@H](Cc1ccccc1)NC(=O)[C@@H](NC(=O)CNC(=O)[C@H](Cc1c[nH]cn1)NC(=O)C(C)(C)NC(=O)[C@@H](N)Cc1c[nH]cn1)[C@@H](C)O)[C@@H](C)O)C(=O)N[C@@H](CCC(=O)O)C(=O)N[C@@H](CCC(=O)O)C(=O)N[C@@H](CCC(N)=O)C(=O)N[C@@H](CCCNC(=N)N)C(=O)N[C@@H](CCC(N)=O)C(=O)NC(C)(C)C(=O)N[C@@H](CCC(=O)O)C(=O)N[C@@H](Cc1ccccc1)C(=O)N[C@H](C(=O)N[C@@H](CCC(=O)O)C(=O)N[C@@H](Cc1c[nH]c2ccccc12)C(=O)N[C@@H](CC(C)C)C(=O)N[C@@H](CCCCN)C(=O)N[C@@H](C)C(=O)NCC(=O)NCC(=O)N[C@@H](Cc1c[nH]cn1)C(=O)N1CCC[C@H]1C(=O)N[C@@H](CO)C(=O)NC(C)(C)C(=O)N[C@@H](CCCCN)C(=O)N1CCC[C@H]1C(=O)N1CCC[C@H]1C(=O)N1CCC[C@H]1C(=O)N[C@@H](CCCCN)C(N)=O)[C@@H](C)CC)C(=O)O)C(=O)O [SEQ ID NO: 12, H-Aib-H-G-T-F-T-S-D-L-S-K-L-K[gGlu-gGlu-Palm]-E-E-Q-R-Q-Aib-E-F-I-E-W-L-K-A-G-G-H-P-S-Aib-K-P-P-P-K-NH2]",11.9,>45,at or close to baseline,
"CCCCCCCCCCCCCCCC(=O)N[C@@H](CCC(=O)N[C@@H](CCC(=O)NCCCC[C@H](NC(=O)[C@H](CC(C)C)NC(=O)[C@H](CCCCN)NC(=O)[C@H](CO)NC(=O)[C@H](CC(C)C)NC(=O)[C@H](CC(=O)O)NC(=O)[C@H](CO)NC(=O)[C@@H](NC(=O)[C@H](Cc1ccccc1)NC(=O)[C@@H](NC(=O)CNC(=O)[C@H](Cc1c[nH]cn1)NC(=O)C(C)(C)NC(=O)[C@@H](N)Cc1c[nH]cn1)[C@@H](C)O)[C@@H](C)O)C(=O)N[C@@H](CCC(=O)O)C(=O)N[C@@H](CCC(=O)O)C(=O)N[C@@H](CCC(N)=O)C(=O)N[C@@H](CCCNC(=N)N)C(=O)N[C@@H](CCC(N)=O)C(=O)NC(C)(C)C(=O)N[C@@H](CCC(=O)O)C(=O)N[C@@H](Cc1ccccc1)C(=O)N[C@H](C(=O)N[C@@H](CCC(=O)O)C(=O)N[C@@H](Cc1c[nH]c2ccccc12)C(=O)N[C@@H](CC(C)C)C(=O)N[C@@H](CCCCN)C(=O)N[C@@H](C)C(=O)N[C@H](C)C(=O)NCC(=O)N[C@@H](Cc1c[nH]cn1)C(=O)N1CCC[C@H]1C(=O)N[C@@H](CO)C(=O)NC(C)(C)C(=O)N[C@@H](CCCCN)C(=O)N1CCC[C@H]1C(=O)N1CCC[C@H]1C(=O)N1CCC[C@H]1C(=O)N[C@@H](CCCCN)C(N)=O)[C@@H](C)CC)C(=O)O)C(=O)O [SEQ ID NO: 13, H-Aib-H-G-T-F-T-S-D-L-S-K-L-K[gGlu-gGlu-Palm]-E-E-Q-R-Q-Aib-E-F-I-E-W-L-K-A-dAla-G-H-P-S-Aib-K-P-P-P-K-NH2] (H-H[Aib]HGTFTSDLSKLK([γGlu-γGlu-Palmitoyl])EEQRQ[Aib]EFIEWLKA[dA]GHPS[Aib]KPPPK-NH2)",10.5,>45,at or close to baseline,
